Values quoted from earlier work in publication PMC3082041 (Cancer Chemotherapy and Pharmacology, 2010).

Test system: patients
Conditions: treated with Imatinib; cited from earlier work

For `Cc1ccc(NC(=O)c2ccc(CN3CCN(C)CC3)cc2)cc1Nc1nccc(-c2cccnc2)n1` [Imatinib], the “patients with grade 3/4 edema” value is listed as 7%.
